What follows are compounds tested against HPK1 (Homo sapiens (Human), UniProt Q92918) (assay: HPK1 biochemical enzyme assay (microfluidic mobility shift assay)). Conditions: 1.5 nM HPK1, ATP 1 mM final, 30 min preincubation, 60 min at RT, Caliper EZ Reader; read-out: HPK1 1000UMATP caliper IC50.
Procedure, shortened: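 Mobility shift readout of HPK1 activity after a 60 min RT reaction with 1 mM ATP, 1 μM substrate and 5 mM MgCl2. Enzyme/substrate mix was first exposed to compounds for 30 min, using ten-point curves topping at 3 μM final.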

Chain of HPK1 (Q92918 whole entry): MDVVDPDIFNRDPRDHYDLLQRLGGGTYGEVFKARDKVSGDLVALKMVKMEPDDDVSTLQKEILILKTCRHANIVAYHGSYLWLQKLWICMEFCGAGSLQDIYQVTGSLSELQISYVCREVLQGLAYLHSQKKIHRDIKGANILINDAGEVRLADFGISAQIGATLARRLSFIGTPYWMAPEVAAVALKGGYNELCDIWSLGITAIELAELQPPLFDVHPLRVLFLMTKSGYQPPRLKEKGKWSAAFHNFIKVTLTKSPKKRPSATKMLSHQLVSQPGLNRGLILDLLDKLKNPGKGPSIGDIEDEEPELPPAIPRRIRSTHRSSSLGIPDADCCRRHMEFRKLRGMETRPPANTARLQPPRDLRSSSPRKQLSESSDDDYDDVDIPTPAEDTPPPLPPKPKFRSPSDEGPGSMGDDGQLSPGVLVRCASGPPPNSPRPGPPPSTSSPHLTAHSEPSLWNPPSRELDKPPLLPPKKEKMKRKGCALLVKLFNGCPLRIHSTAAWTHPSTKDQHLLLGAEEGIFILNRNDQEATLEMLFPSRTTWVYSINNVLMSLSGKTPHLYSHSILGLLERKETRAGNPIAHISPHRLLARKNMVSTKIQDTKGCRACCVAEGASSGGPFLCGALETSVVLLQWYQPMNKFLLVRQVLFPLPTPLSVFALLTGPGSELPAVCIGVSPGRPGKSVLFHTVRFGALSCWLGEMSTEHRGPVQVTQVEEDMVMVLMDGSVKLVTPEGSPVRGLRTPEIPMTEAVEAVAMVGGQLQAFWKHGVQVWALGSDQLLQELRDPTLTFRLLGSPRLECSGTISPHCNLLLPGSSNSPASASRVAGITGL

IC50 [nM]	Compound
< 100	CN(C)Cc1nc(Nc2ccc(-c3cnc4cc(F)ccn34)c3c2C(=O)NC3)ccc1N1CCC(O)CC1 [I-777, 7-((6-((dimethylamino)-methyl)-5-(4-hydroxypiperidin-1-yl)pyridin-2-yl)amino)-4-(7-fluoroimidazo [1,2-a]pyridin-3-yl)isoindolin-1-one]
< 100	O=C1NCc2c(-c3cnc4cc(F)ccn34)ccc(Nc3ccc([C@H]4CCOC4)c(CN4CC[C@H](O)C4)n3)c21 [I-778, 4-(7-fluoroimidazo[1,2-a]pyridin-3-yl)-7-((6-(((S)-3-hydroxypyrrolidin-1-yl)methyl)-5-((R)-tetrahydrofuran-3-yl)pyridin-2-yl)amino)isoindolin-1-one]
< 100	O=C1NCc2c(-c3cnc4cc(F)ccn34)ccc(Nc3ccc([C@@H]4CCOC4)c(CN4CC[C@H](O)C4)n3)c21 [I-779, 4-(7-fluoroimidazo[1,2-a]pyridin-3-yl)-7-((6-(((S)-3-hydroxypyrrolidin-1-yl)methyl)-5-((S)-tetrahydrofuran-3-yl)pyridin-2-yl)amino)isoindolin-1-one]
< 100	CO[C@@H]1CCN(Cc2nc(Nc3ccc(-c4cnc5cc(F)ccn45)c4c3C(=O)NC4)ccc2[C@H]2CCOC2)C1 [I-780, 4-(7-fluoroimidazo [1,2-a]pyridin-3-yl)-7((6-(((R)-3-methoxypyrrol-idin-1-yl)methyl)-5-((R)-tetraliydrofiiran-3-yl)pyridin-2-yl)amino)isoin-dolin-1-one]
< 100	CO[C@@H]1CCN(Cc2nc(Nc3ccc(-c4cnc5cc(F)ccn45)c4c3C(=O)NC4)ccc2[C@@H]2CCOC2)C1 [I-781, 4-(7-fluoroimidazo [1,2-a]pyridin-3-yl)-7-((6-(((R)-3-methoxypyrrol-idin-1-yl)methyl)-5-((S)-tetrahydrofuran-3-yl)pyridin-2-yl)amino)isoin-dolin-1-one]
< 100	COCC1(O)CCN(c2ccc(Nc3ccc(-c4cnc5cc(F)ccn45)c4c3C(=O)NC4)nc2CN(C)C)CC1 [I-782, 7-((6-((dimethylamino)-methyl)-5-(4-hydroxy-4-(methoxymeth-yl)piperidin-1-yl)pyridin-2-yl)amino)-4-(7-fluoroimidazo [1,2-a]pyridin-3-yl)isoindolin-1-one]
< 100	O=C1NCc2c(-c3cnc4cc(F)ccn34)ccc(Nc3ccc([C@H]4CCOC4)c(CN4CC[C@@H](O)C4)n3)c21 [I-783, 4-(7-f1uoroimidazo [1,2-a]pyridin-3-yl)-7-((6-(((R)-3-hydroxypyrrol-idin-1-yl)methyl)-5-((R)-tetrahydrofuran-3-yl)pyridin-2-yl)amino)isoin-dolin-1-one]
< 100	O=C1NCc2c(-c3cnc4cc(F)ccn34)ccc(Nc3ccc([C@@H]4CCOC4)c(CN4CC[C@@H](O)C4)n3)c21 [I-784, 4-(7-fluoroimidazo [1,2-a]pyridin-3-yl)-7-((6-(((R)-3-hydroxypyrroli-din-1-yl)methyl)-5-((S)-tetrahydrofuran-3-yl)pyridin-2-yl)amino)isoin-dolin-1-one]
< 100	CCN(CC)Cc1nc(Nc2ccc(-c3cnc4cc(F)ccn34)c3c2C(=O)NC3)ccc1N1CCOCC1 [I-785, 7-((6-((diethylamino)-methyl)-5-morpholinopyr-idin-2-yl)amino)-4-(7-fluoroimidazo [1,2-a]pyridin-3-yl)isoindolin-1-one]
< 100	CN(C)Cc1nc(Nc2ccc(-c3cnc4cc(F)ccn34)c3c2C(=O)NC3)ccc1C1CCC1 [I-788, 7-((5-cyclobutyl-6-((dimethylamino)-methyl)pyri-din-2-yl)amino)-4-(7-fluoroimidazo [1,2-a]pyridin-3-yl)isoindolin-1-one]
< 100	CO[C@H]1CCN(Cc2nc(Nc3ccc(-c4cnc5cc(F)ccn45)c4c3C(=O)NC4)ccc2[C@@H]2CCOC2)C1 [I-790, 4-(7-fluoroimidazo [1,2-a]pyridin-3-yl)-7-((6-(((S)-3-methoxypyrrol-idin-1-yl)methyl)-5-((S)-tetrahydiofuran-3-yl)pyridin-2-yl)amino)isoin-dolin-1-one]
< 100	CCNC(=O)c1ccc(Nc2ccc(-c3cnc4cc(F)ccn34)c3c2C(=O)NC3)nc1CN(C)C [I-791, 2-((dimethylamino)-methyl)-N-ethyl-6-((7-(7-fluoroimidazo [1,2-a]pyridin-3-yl)-3-oxoisoindolin-4-yl)amino)nico-tinamide]
< 100	CN(C)Cc1nc(Nc2ccc(-c3cnc4cc(F)ccn34)c3c2C(=O)NC3)ccc1N1CCN(C)C(=O)C1 [I-795, 7-((6-((dimethylamino)-methyl)-5-(4-methyl-3-oxopiperazin-1-yl)pyridin-2-yl)amino)-4-(7-fluoroimidazo [1,2-a]pyridin-3-yl)isoindolin-1-one]
< 100	CN(C)Cc1nc(Nc2ccc(-c3cnc4cc(F)ccn34)c3c2C(=O)NC3)ccc1S(C)(=O)=O [I-796, 7-((6-((dimethylamino)-methyl)-5-(methylsulfon-yl)pyridin-2-yl)amino)-4-(7-fluoroimidazo [1,2-a]pyridin-3-yl)isoindolin-1-one]
< 100	COC[C@@H]1CN(c2ccc(Nc3cnc(-c4ccnc5c4ccn5C)c4c3C(=O)NC4)nc2CN(C)C)CCO1 [I-797, (S)-7-((6-((dimethylamino)-methyl)-5-(2-(methoxymeth-yl)morpholino)-pyridin-2-yl)amino)-4-(1-methyl-1H-pyrrolo[2,3-b]pyridin-4-yl)-2,3-dihydro-1H-pyrrolo[3,4-c)pyridin-1-one]
< 100	COC[C@H]1CN(c2ccc(Nc3cnc(-c4ccnc5c4ccn5C)c4c3C(=O)NC4)nc2CN(C)C)CCO1 [I-798, (R)-7-((6-((dimethylamino)-methyl)-5-(2-(methoxymeth-yl)morpholino)pyridin-2-yl)amino)-4-(1-methyl-1H-pyrrolo[2,3-b]pyridin-4-yl)-2,3-dihydro-1H-pyrrolo[3,4-c]pyridin-1-one]
< 100	CN(C)Cc1nc(Nc2ccc(-c3cnc4cc(F)ccn34)c3c2C(=O)NC3)cnc1[C@H]1CCOC1 [I-800, (R)-7-((6-((dimethylamino)-methyl)-5-(tetrahydrofuran-3-yl)pyrazin-2-yl)amino)-4-(7-fluoroimidazo [1,2-a]pyridin-3-yl)isoindolin-1-one]
< 100	CN(C)Cc1nc(Nc2ccc(-c3cnc4cc(F)ccn34)c3c2C(=O)NC3)ccc1[C@]1(O)CCOC1 [I-803, (R)-7-((6-((dimethylamino)-methyl)-5-(3-hydroxytetra-hydrofuran-3-yl)pyridin-2-yl)amino)-4-(7-fluoroimidazo [1,2-a]pyridin-3-yl)isoindolin-1-one]
< 100	CN(C)Cc1nc(Nc2ccc(-c3cnc4cc(F)ccn34)c3c2C(=O)NC3)ccc1[C@@]1(O)CCOC1 [I-804, (S)-7-((6-((dimethylamino)-methyl)-5-(3-hydroxytetra-hydrofuran-3-yl)pyridin-2-yl)amino)-4-(7-fluoroimidazo [1,2-a]pyridin-3-yl)isoindolin-1-one]
< 100	CN(C)Cc1nc(Nc2cnc(-c3ccnc4c3ccn4C)c3c2C(=O)NC3)ccc1O[C@H]1CCOC1 [I-806, (S)-7-((6-((dimetlnlamino)-methyl)-5-((tetrahydrofur-an-3-yl)oxy)pyridin-2-yl)amino)-4-(1-methyl-1H-pyrrolo[2,3-b]pyridin-4-yl)-2,3-dihydro-1H-pyrrolo[3,4-c]pyridin-1-one]
< 100	Cn1ccc2c(-c3ncc(Nc4ccc([C@@H]5CCOC5)c(CN5CC[C@@H](O)C5)n4)c4c3CNC4=O)ccnc21 [I-809, 7-((6-(((R)-3-hydroxypyrroli-din-1-yl)methyl)-5-((S)-THF-3-yl)pyridin-2-yl)amino)-4-(1-methyl-1H-pyrrolo[2,3-b]pyridin-4-yl)-2,3-dihydro-1H-pyrrolo[3,4-c]pyridin-1-one]
< 100	Cn1ccc2c(-c3ncc(Nc4ccc([C@H]5CCOC5)c(CN5CC[C@@H](O)C5)n4)c4c3CNC4=O)ccnc21 [I-810, 7-((6-(((R)-3-hydroxypyrroli-din-1-yl)methyl)-5-((R)-THF-3-yl)pyridin-2-yl)amino)-4-(1-methyl-1H-pyrrolo[2,3-b]pyridin-4-yl)-2,3-dihydro-1H-pyrrolo[3,4-c]pyridin-1-one]
< 100	Cn1ccc2c(-c3ncc(Nc4ccc([C@@H]5CCOC5)c(CN5CC[C@H](O)C5)n4)c4c3CNC4=O)ccnc21 [I-811, 7-((6-(((S)-3-hydroxypyrroli-din-1-yl)methyl)-5-((S)-THF-3-yl)pyridin-2-yl)amino)-4-(1-methyl-1H-pyrrolo[2,3-b]pyridin-4-yl)-2,3-dihydro-1H-pyrrolo[3,4-c]pyridin-1-one]
< 100	Cn1ccc2c(-c3ncc(Nc4ccc([C@H]5CCOC5)c(CN5CC[C@H](O)C5)n4)c4c3CNC4=O)ccnc21 [I-812, 7-((6-(((S)-3-hydroxypyrroli-din-1-yl)methyl)-5-((R)-THF-3-yl)pyridin-2-yl)amino)-4-(1-methyl-1H-pyrrolo[2,3-b]pyridin-4-yl)-2,3-dihydro-1H-pyrrolo[3,4-c]pyridin-1-one]
< 100	CN1CC(Oc2nc(Nc3ccc(-c4cnc5cc(F)ccn45)c4c3C(=O)NC4)ccc2[C@H]2CCOC2)C1 [I-815]
< 100	C[C@H](c1nc(Nc2ccc(-c3cnc4cc(F)ccn34)c3c2C(=O)NC3)ccc1[C@H]1CCOC1)N(C)C [I-817, 7-((6-((R)-1-(dimethylami-no)ethyl)-5-((R)-THF-3-yl)pyridin-2-yl)amino)-4-(7-fluoroimidazo [1,2-a]pyridin-3-yl)isoindolin-1-one]
< 100	COC1(c2ccc(Nc3ccc(-c4cnc5cc(F)ccn45)c4c3C(=O)NC4)nc2CN(C)C)CC1 [I-823, 7-((6-((dimethylamino)methyl)-5-(1-methoxycyclopropyl)pyridin-2-yl)amino)-4-(7-fluoroimidazo[1,2-a]pyridin-3-yl)isoindolin-1-one]
< 100	CN(C)Cc1nc(Nc2ccc(-c3cnc4cc(F)ccn34)c3c2C(=O)NC3)ccc1C1(C#N)CCOCC1 [I-824, 4-(2-((dimethylamino)methyl)-6-((7-(7-fluoroimidazo [1,2-a]pyridin-3-yl)-3-oxoisoindolin-4-yl)amino)pyri-din-3-yl)tetrahydro-2H-pyran-4-carbonitrilc]

Reference: patent US11021481B2, “Substituted isoindolin-1-ones and 2,3-dihydro-1h-pyrrolo[3,4-c]pyridin-1-ones as HPK1 antagonists” (Nimbus Saturn, Inc., priority 2019, dated 2021)
